Experimental data reported in patent publication US20250170149A1, “NEUROACTIVE STEROIDS FOR TREATMENT OF GASTROINTESTINAL DISEASES OR CONDITIONS” (Sage Therapeutics, Inc., priority 2022, published 2025).
“Also recorded” adds a separate entry of the source. Where two headings read alike, the source gives them in different places.

Key:
[1] = system: patients with major depressive disorder (MDD); settings: cited from earlier work; for rates of gastrointestinal adverse reactions compared to placebo, words: 15 most commonly used antidepressants in MDD, Oliva V, et al. 2021; for gastrointestinal tolerability among antidepressants, words: Oliva V. et al. 2021 meta-analysis in MDD
[2] = system: participants with major depressive disorder (MDD); assay: Treatment-emergent adverse events (TEAEs) and serious AEs in study NCT04476030, safety set; assay type: in vivo, human; settings: one patient, about 1 hour after zuranolone 50 mg on Day 7; resolved within 22 minutes
Description: A randomized, double-blind, parallel-group, active/placebo-controlled study (NCT04476030) in participants with major depressive disorder (MDD) was conducted. The study evaluated the efficacy and safety of zuranolone 50 mg co-initiated with standard-of-care (SOC) antidepressant therapies (ADTs) (zuranolone+ADT) vs placebo co-initiated with SOC ADT (placebo+ADT) in adults with MDD. Patients were randomized 1:1 to once-daily, blinded zuranolone +ADT or placebo+ADT for 14 days then continued open-label SOC ADT for 28 more days.
An AE could therefore be any unfavorable and unintended sign (including an abnormal laboratory finding), symptom or disease temporally associated with the use of a medicinal (investigational) product whether or not related to the medicinal (investigational) product. In clinical studies, an AE could include an undesirable medical condition occurring at any time, including baseline or washout periods, even if no study treatment had been administered.
A treatment emergent adverse event (TEAE) was defined as an AE with onset after the start of investigational product (IP), or any worsening of a pre-existing medical condition/AE with onset after the start of IP and throughout the study. The term IP included any Sage IP, a comparator, or a placebo administered in a clinical study. […]

Structure (SMILES)	rates of gastrointestinal adverse reactions compared to placebo, words [1]	also measured
COc1ccc2cccc(CCNC(C)=O)c2c1 [agomelatine]	higher rates of gastrointestinal adverse reactions	
CCOc1ccccc1OC(c1ccccc1)C1CNCCO1 (stereo not drawn) [reboxetine]	higher rates of gastrointestinal adverse reactions	
Cc1ccc(Sc2ccccc2N2CCNCC2)c(C)c1 [vortioxetine]	higher rates of gastrointestinal adverse reactions	
CC(NC(C)(C)C)C(=O)c1cccc(Cl)c1 (stereo not drawn) [bupropion]	higher rates of gastrointestinal adverse reactions	
CNCC[C@H](Oc1cccc2ccccc12)c1cccs1 [duloxetine]	higher rates of gastrointestinal adverse reactions	
CNCCC(Oc1ccc(C(F)(F)F)cc1)c1ccccc1 (stereo not drawn) [fluoxetine]	higher rates of gastrointestinal adverse reactions	
C[C@@]1(O)CC[C@H]2[C@H](CC[C@@H]3[C@@H]2CC[C@]2(C)[C@@H](C(=O)Cn4cc(C#N)cn4)CC[C@@H]32)C1 [zuranolone]		serious TEAE assessed as related to zuranolone by the investigator [2]: seizure-like phenomenon; also recorded: seizure-like phenomena
CN(C)CC(c1ccc(O)cc1)C1(O)CCCCC1 (stereo not drawn) [desvenlafaxine]	higher rates of gastrointestinal adverse reactions	
CCN(CC)C(=O)[C@@]1(c2ccccc2)C[C@H]1CN [levomilnacipran]	higher rates of gastrointestinal adverse reactions	
CN(C)CCC[C@@]1(c2ccc(F)cc2)OCc2cc(C#N)ccc21 [escitalopram]	higher rates of gastrointestinal adverse reactions	gastrointestinal tolerability among antidepressants, words [1]: least tolerated antidepressants on the gastrointestinal tract; gastrointestinal tolerability among antidepressants, words ([1]; listed as Escitalopram): least tolerated antidepressants on the GI tract
CN[C@H]1CC[C@@H](c2ccc(Cl)c(Cl)c2)c2ccccc21 [sertraline]	higher rates of gastrointestinal adverse reactions	gastrointestinal tolerability among antidepressants, words [1]: least tolerated antidepressants on the gastrointestinal tract; also recorded: least tolerated antidepressants on the GI tract; incidence of diarrhea, words ([1]; compared to other SSRIs and venlafaxine, Gartlehner G, et al. 2011): higher incidence of diarrhea
CN(C)CCCC1(c2ccc(F)cc2)OCc2cc(C#N)ccc21 (stereo not drawn) [citalopram]	higher rates of gastrointestinal adverse reactions	
COc1ccc(C(CN(C)C)C2(O)CCCCC2)cc1 (stereo not drawn) [venlafaxine]	higher rates of gastrointestinal adverse reactions	rates of nausea and vomiting, words ([1]; compared to SSRIs and duloxetine, Gartlehner G, et al. 2011): higher rates of nausea and vomiting
CN1CCN2c3ncccc3Cc3ccccc3C2C1 (stereo not drawn) [mirtazapine]	higher rates of gastrointestinal adverse reactions	
Fc1ccc([C@@H]2CCNC[C@H]2COc2ccc3c(c2)OCO3)cc1 [paroxetine]	higher rates of gastrointestinal adverse reactions	
COCCCC/C(=N\OCCN)c1ccc(C(F)(F)F)cc1 [fluvoxamine]	higher rates of gastrointestinal adverse reactions	
